Experimental data taken from patent publication US20140329753A1, “Angiogenic active lytic peptides” (priority 2013, published 2014).
Entries after “also recorded” stand apart in the source; their conditions may differ.

Experiments:
angiogenesis = assay: Matrigel deposit implant test for angiogenic activity (acceleration or inhibition), FGF1-induced; type: in vivo, mice; parameters: key to top score seen in Matrigel deposits: no + sign would yield a value of 0, as in A in FIG. 13; B in FIG. 13 would yield a score of +++; ++++: 0 to 4 plus (+) scale; details: for top score seen in Matrigel deposits: 0 to 4 plus (+) scale, only top level scores of the experiment
Description: Matrigel deposits were surgically implanted on both sides of 4 mice per treatment yielding a possible 8 samples per treatment. Matrigel is a polymeric substance that appears to be relatively inert in animals and it can serve as a matrix that allows experimentation in vivo on many different difficult-to-study-processes. Prior to implantation, the Matrigel was allowed to imbibe fibroblast growth factor 1 (FGF1). This protein is a powerful inducer of angiogenesis and its presence guarantees that sufficient activity will be observed within the allotted time period of the experiment. Therefore, any inhibition of angiogenesis is likely to be a real phenomenon as the experiment has been set to heavily favor the angiogenic process. Angiogenesis occurs by day 14 and beginning Day 1 (Day 0=day of implantation), mice were injected IP daily with 20 μg of peptide in 100 μl of normal saline. The animals were sacrificed on Day 14, and each Matrigel deposit divided longitudinally and fixed in 10% buffered formalin. One of the halves of each Matrigel deposit was then sectioned. Read-out for this experiment was via histology, with semi-quantitative/qualitative counting of migration of cells and their subsequent assembly of lumenal structures within the Matrigel. This method allows us to observe the full physiologic spectrum of effects, and was useful in delineating trends. […] In FIG. 13, A represents what a section of a Matrigel gel deposit looks like under the microscope soon after surgical implantation. The sample in B is derived from the control at the conclusion of the experiment. Intense activity is present with numerous cells attaching to the surface of the Matrigel. Cells begin to penetrate the deposit and organize into discrete structures that coalesce to form the beginning of tubes twisting and branching in many directions. These venules eventually connect with the system carrying blood and it is possible to see red cells and lymphocytes within them. This process is called “arborization”, derived from the fact that the angiogenic process most closely resembles the growth of roots and branches of trees. All but two of the peptide treatments looked, more or less, like B (all the peptides of Table 1 were tested). In C, a typical sample from the peptide C-1 (SEQ ID NO: 24) treatment is shown. […] Consequently, there were far fewer cells and cellular structures inside of the Matrigel. […] There were large regions of Matrigel that had no visibly associated structures and few single cells, including on the periphery, while other regions had some limited activity.
This system ranks each sample using a 0 to 4 plus (+) scale. Thus, B in FIG. 13 would yield a score of +++ while no + sign would yield a value of 0, as in A in FIG. 13. In Table 3 the data is modified to a numerical form and plotted averages are shown.

[1] = system: Feline Immunodeficiency virus FIV; assay: Peptide treatment of a lion infected with FIV (CD4+/CD8+ cell counts); type: in vivo; details: weekly 70 mg I.M injections
Description: Nasty is a male lion in North Carolina Zoological Park. He was diagnosed to suffer Feline Immunodeficiency virus FIV. FIV attacks the immune system of cats, much like the human immunodeficiency virus (HIV) attacks the immune system of human beings. FIV infects many cell types in its host, including CD4+ and CD8+T lymphocytes, B lymphocytes, and macrophages. FIV eventually leads to debilitation of the immune system in its feline hosts by the infection and exhaustion of T-helper (CD4+) cells.
Nasty was treated weekly with 70 mg I.M injections of JC15-10N.

arthritis = assay: Treatment of a patient with arthritis (x-ray of ankle joints); type: in vivo; details: 10 mg subcutaneous once a week for one month, then once a month
Method: A patient with arthritis was treated by subcutaneous injection of 10 mg once a week for one month and then once a month for maintenance doses. A visible indication of arthritis is calcification of joints.

tumors = assay: In vivo anti-tumor activity of injected peptide in animal tumor models
[2] = mice, 20 μg peptide IP daily, Day 14 histology

Sequence: FAKKFAKFAF [JC15-10C]
- angiogenic / anti-angiogenic activity in Matrigel deposits (in words) (angiogenesis; [2]): inactive

Sequence: FAKKFAKKFK [JC15-10N]
- angiogenic / anti-angiogenic activity in Matrigel deposits (in words) (angiogenesis; [2]): possesses anti-angiogenic activity
- absolute CD4+ cell counts [1]: stabilized the CD4+ cell counts
- absolute CD8+ cell counts [1]: the cell counts began to rise
- calcification of the ankle joints (arthritis): disappeared

Sequence: FAKKFAKKFKKF [JC15-12N]
- top score seen in Matrigel deposits (angiogenesis): ++++
- angiogenic / anti-angiogenic activity in Matrigel deposits (in words) (angiogenesis; [2]): levels of activity higher than the control; also recorded: cannot exert an anti-angiogenic effect; also recorded: does not inhibit angiogenesis

Sequence: FAKKFAKKFKKFAKKFAK [JC15-18N]
- angiogenic / anti-angiogenic activity in Matrigel deposits (in words) (angiogenesis; [2]): levels of activity higher than the control; also recorded: cannot exert an anti-angiogenic effect

Sequence: FAKKFAKKFKKFAKKFAKFAFAF [JC15]
- effect on tumors, peptide injected directly into the tumor (tumors; a few injections over a period of several days): tumors are permanently eliminated
- effect on tumors, peptide injected in a site removed from the tumor (tumors; systemic activity, several animal tumor models, in some cases little activity): most of the tumors also disappeared
- % Diff. (angiogenesis; difference of mean score from Control (2.50)): 4.00%
- angiogenic activity score, Mean (angiogenesis; mean of samples, mice, 20 μg peptide IP daily, Day 14, 0 to 4 plus scale): 2.60
- angiogenic / anti-angiogenic activity in Matrigel deposits (in words) (angiogenesis; [2]): closer to the control; also recorded: cannot exert an anti-angiogenic effect
- angiogenic activity score, Sample 1 (angiogenesis; mice, FGF1-imbibed Matrigel, 20 μg peptide IP daily, Day 14 histology, 0 to 4 plus scale, sample 1): 3
- angiogenic activity score, Sample 2 (angiogenesis; mice, FGF1-imbibed Matrigel, 20 μg peptide IP daily, Day 14 histology, 0 to 4 plus scale, sample 2): 2
- angiogenic activity score, Sample 3 (angiogenesis; mice, FGF1-imbibed Matrigel, 20 μg peptide IP daily, Day 14 histology, 0 to 4 plus scale, sample 3): 3
- angiogenic activity score, Sample 4 (angiogenesis; mice, FGF1-imbibed Matrigel, 20 μg peptide IP daily, Day 14 histology, 0 to 4 plus scale, sample 4): 2
- angiogenic activity score, Sample 5 (angiogenesis; mice, FGF1-imbibed Matrigel, 20 μg peptide IP daily, Day 14 histology, 0 to 4 plus scale, sample 5): 3

Sequence: IVRRADRAAVPIVNLKDELL [C-1]
- angiogenic / anti-angiogenic activity in Matrigel deposits (in words) (angiogenesis; [2]): far fewer cellular associations; also recorded: possess anti-angiogenic activity

Sequence: KKFKKFAKKFAKFAF [JC15-15C]
- top score seen in Matrigel deposits (angiogenesis): ++++
- angiogenic / anti-angiogenic activity in Matrigel deposits (in words) (angiogenesis; [2]): levels of activity higher than the control; also recorded: cannot exert an anti-angiogenic effect
